Data from publication PMC3794980, “Identification of Conserved and HLA Promiscuous DENV3 T-Cell Epitopes” (PLoS Neglected Tropical Diseases, 2013).

Assays:
DRB3*0101 = DRB3*0101 (Homo sapiens, UniProt P01903+P79483); test: biochemical; format: binding
DRB5*0101 = DRB5*0101 (Homo sapiens, UniProt P01903+Q30154); test: biochemical; format: binding

SMILES | IC50 (DRB3*0101) [nM] | IC50 (DRB5*0101) [nM]
CC[C@H](C)[C@H](NC(=O)[C@@H](NC(=O)[C@H](CCCCN)NC(=O)[C@@H](N)CCCCN)C(C)C)C(=O)N[C@@H](CCC(N)=O)C(=O)N[C@@H](CC(C)C)C(=O)N[C@@H](CO)C(=O)N[C@@H](CCCNC(=N)N)C(=O)N[C@@H](CCCCN)C(=O)N[C@H](C(=O)N[C@@H](Cc1ccccc1)C(=O)N[C@@H](CC(=O)O)C(=O)N[C@H](C(=O)N[C@@H](CCC(=O)O)C(=O)N[C@@H](Cc1ccc(O)cc1)C(=O)O)[C@@H](C)O)[C@@H](C)O [NS3 381-395] | 399 | 5720
CSCC[C@H](NC(=O)[C@H](C)NC(=O)[C@H](CCSC)NC(=O)[C@H](CCC(N)=O)NC(=O)[C@@H](NC(=O)[C@@H](NC(=O)[C@H](CCSC)NC(=O)[C@@H]1CCCN1C(=O)[C@@H](NC(=O)[C@@H](NC(=O)[C@H](CC(=O)O)NC(=O)[C@H](Cc1c[nH]c2ccccc12)NC(=O)[C@@H]1CCCN1)C(C)C)C(C)C)C(C)C)[C@@H](C)O)C(=O)N[C@H](C(=O)N[C@@H](CC(=O)O)C(=O)N[C@H](C(=O)N[C@H](C(=O)O)[C@@H](C)O)[C@@H](C)O)[C@@H](C)O [NS5 330-346] | – | 1040
CC[C@H](C)[C@H](NC(=O)[C@H](CC(C)C)NC(=O)[C@H](CCC(=O)O)NC(=O)[C@H](Cc1c[nH]cn1)NC(=O)[C@H](Cc1ccccc1)NC(=O)[C@H](Cc1c[nH]cn1)NC(=O)[C@H](Cc1c[nH]cn1)NC(=O)[C@H](CO)NC(=O)[C@H](CS)NC(=O)[C@H](Cc1ccccc1)NC(=O)[C@@H]1CCCN1C(=O)[C@@H](NC(=O)[C@H](CCC(N)=O)NC(=O)[C@H](CCC(N)=O)NC(=O)[C@H](Cc1c[nH]c2ccccc12)NC(=O)[C@@H](N)CC(=O)O)C(C)C)C(=O)N[C@@H](CCSC)C(=O)O [NS5 702-718] | 4740 | 3220
CC[C@H](C)[C@H](NC(=O)CNC(=O)[C@H](CO)NC(=O)[C@H](CCCCN)NC(=O)[C@@H](N)CCCCN)C(=O)N[C@H](C(=O)N[C@@H](CCC(=O)O)C(=O)N[C@H](C(=O)N[C@@H](CC(=O)O)C(=O)N[C@@H](CCCNC(=N)N)C(=O)N[C@H](C(=O)N[C@@H](CCC(=O)O)C(=O)N[C@@H](C)C(=O)N[C@@H](CCCCN)C(=O)N[C@@H](CCC(=O)O)C(=O)NCC(=O)N[C@@H](CC(C)C)C(=O)O)[C@@H](C)O)C(C)C)[C@@H](C)O [NS5 29-45] | 5380 | –
CC[C@H](C)[C@H](NC(=O)[C@@H]1CCCN1C(=O)[C@H](CCCCN)NC(=O)[C@@H](NC(=O)[C@@H](NC(=O)[C@H](CS)NC(=O)[C@@H](N)CC(=O)O)C(C)C)C(C)C)C(=O)N[C@@H](CC(=O)O)C(=O)N[C@@H](CC(=O)O)C(=O)N[C@@H](CCCNC(=N)N)C(=O)N[C@@H](Cc1ccccc1)C(=O)N[C@@H](C)C(=O)N[C@@H](CC(N)=O)C(=O)N[C@@H](C)C(=O)N[C@@H](CC(C)C)C(=O)N[C@@H](CC(C)C)C(=O)N[C@@H](C)C(=O)O [NS5 664-680] | 4090 | –
CC[C@H](C)[C@H](NC(=O)[C@H](CC(=O)O)NC(=O)[C@@H](NC(=O)[C@@H](NC(=O)[C@@H](NC(=O)[C@@H](NC(=O)[C@@H](N)Cc1ccccc1)C(C)C)C(C)C)[C@@H](C)O)[C@@H](C)O)C(=O)N[C@@H](CO)C(=O)N[C@@H](CCC(=O)O)C(=O)N[C@@H](CCSC)C(=O)NCC(=O)N[C@@H](C)C(=O)N[C@@H](CC(N)=O)C(=O)N[C@@H](Cc1ccccc1)C(=O)N[C@@H](CCCCN)C(=O)O [NS3 405-419] | 1590 | –
CC[C@H](C)[C@H](NC(=O)[C@H](CC(=O)O)NC(=O)[C@@H](N)[C@@H](C)O)C(=O)N[C@@H](CO)C(=O)N[C@@H](CCC(=O)O)C(=O)N[C@@H](CCSC)C(=O)NCC(=O)N[C@@H](C)C(=O)N[C@@H](CC(N)=O)C(=O)N[C@@H](Cc1ccccc1)C(=O)N[C@@H](CCCCN)C(=O)N[C@@H](C)C(=O)N[C@@H](CC(=O)O)C(=O)N[C@@H](CCCNC(=N)N)C(=O)N[C@H](C(=O)O)C(C)C [NS3 409-423] | 168 | 50
CC[C@H](C)[C@H](NC(=O)[C@H](Cc1ccc(O)cc1)NC(=O)[C@H](CCC(N)=O)NC(=O)[C@H](CC(=O)O)NC(=O)[C@H](CC(N)=O)NC(=O)[C@H](CCC(=O)O)NC(=O)[C@H](CCCCN)NC(=O)[C@H](CCC(N)=O)NC(=O)[C@@H]1CCCN1C(=O)[C@@H](N)CC(N)=O)C(=O)N[C@@H](Cc1ccccc1)C(=O)N[C@H](C(=O)NCC(=O)N[C@@H](CCC(N)=O)C(=O)N1CCC[C@H]1C(=O)O)[C@@H](C)O [NS3 465-479] | 10600 | –
CC[C@H](C)[C@H](NC(=O)[C@@H](NC(=O)[C@H](CCCNC(=N)N)NC(=O)[C@H](CC(=O)O)NC(=O)[C@H](C)NC(=O)[C@H](CCCCN)NC(=O)[C@H](Cc1ccccc1)NC(=O)[C@H](CC(N)=O)NC(=O)[C@H](C)NC(=O)CNC(=O)[C@H](CCSC)NC(=O)[C@@H](N)CCC(=O)O)C(C)C)C(=O)N[C@@H](CC(=O)O)C(=O)N1CCC[C@H]1C(=O)N[C@@H](CCCNC(=N)N)C(=O)O [NS3 413-427] | 96 | 1200
CC[C@H](C)[C@H](N)C(=O)N[C@@H](CCCNC(=N)N)C(=O)N[C@@H](Cc1ccc(O)cc1)C(=O)N[C@@H](CCC(N)=O)C(=O)N[C@H](C(=O)N[C@H](C(=O)N[C@@H](C)C(=O)N[C@H](C(=O)N[C@@H](CCCCN)C(=O)N[C@@H](CO)C(=O)N[C@@H](CCC(=O)O)C(=O)N[C@@H](Cc1c[nH]cn1)C(=O)N[C@H](C(=O)NCC(=O)N[C@@H](CCCNC(=N)N)C(=O)O)[C@@H](C)O)[C@@H](C)O)[C@@H](C)O)[C@@H](C)O [NS3 241-255] | 12800 | 17
CC(C)[C@H](NC(=O)[C@H](CCC(=O)O)NC(=O)[C@H](Cc1ccc(O)cc1)NC(=O)[C@H](CO)NC(=O)CNC(=O)[C@H](Cc1c[nH]cn1)NC(=O)[C@H](Cc1ccc(O)cc1)NC(=O)[C@H](C)NC(=O)[C@H](Cc1c[nH]c2ccccc12)NC(=O)[C@@H](N)[C@@H](C)O)C(=O)N[C@@H](CCCCN)C(=O)N[C@@H](C)C(=O)N[C@H](C(=O)NCC(=O)N[C@@H](CO)C(=O)N[C@@H](C)C(=O)O)[C@@H](C)O [NS5 301-316] | 536 | 1830
CC[C@H](C)[C@H](NC(=O)[C@H](CCCCN)NC(=O)[C@H](CCCCN)NC(=O)[C@H](CCC(=O)O)NC(=O)[C@H](CC(C)C)NC(=O)[C@@H]1CCCN1C(=O)[C@H](Cc1c[nH]cn1)NC(=O)[C@@H]1CCCN1C(=O)[C@H](CC(N)=O)NC(=O)[C@H](CCC(=O)O)NC(=O)[C@H](CC(C)C)NC(=O)[C@H](CC(=O)O)NC(=O)[C@H](C)NC(=O)[C@@H](N)CCCCN)C(=O)N[C@H](C(=O)N[C@@H](CCC(N)=O)C(=O)N[C@@H](Cc1c[nH]c2ccccc12)C(=O)O)[C@@H](C)O [NS5 630-646] | 13700 | 15500
CC[C@H](C)[C@H](NC(=O)CNC(=O)[C@@H](NC(=O)[C@H](C)NC(=O)[C@@H](NC(=O)[C@H](CS)NC(=O)[C@@H](N)CO)[C@@H](C)CC)[C@@H](C)CC)C(=O)N[C@H](C(=O)N[C@H](C(=O)N[C@@H](CC(C)C)C(=O)N[C@@H](Cc1ccc(O)cc1)C(=O)N[C@@H](CC(C)C)C(=O)NCC(=O)N[C@@H](C)C(=O)N[C@H](C(=O)N[C@H](C(=O)N[C@@H](CCC(N)=O)C(=O)N[C@@H](C)C(=O)O)C(C)C)C(C)C)[C@@H](C)O)[C@@H](C)CC [Envelope 476-493] | 3830 | –
CC[C@H](C)[C@H](NC(=O)[C@@H](NC(=O)[C@@H](N)Cc1ccccc1)[C@@H](C)CC)C(=O)N[C@@H](CC(=O)O)C(=O)NCC(=O)N1CCC[C@H]1C(=O)N[C@@H](CC(N)=O)C(=O)N[C@H](C(=O)N1CCC[C@H]1C(=O)N[C@@H](CCC(=O)O)C(=O)N[C@@H](CS)C(=O)N1CCC[C@H]1C(=O)N[C@@H](CO)C(=O)N[C@@H](C)C(=O)N[C@@H](CO)C(=O)O)[C@@H](C)O [NS1 133-147] | – | 6910
CC[C@H](C)[C@H](NC(=O)[C@H](CO)NC(=O)[C@@H]1CCCN1C(=O)[C@@H](NC(=O)[C@H](Cc1ccccc1)NC(=O)[C@H](Cc1c[nH]c2ccccc12)NC(=O)[C@@H](NC(=O)[C@@H](NC(=O)[C@H](CCCCN)NC(=O)CN)[C@@H](C)O)C(C)C)C(C)C)C(=O)N[C@@H](CCCCN)C(=O)N[C@@H](C)C(=O)NCC(=O)N[C@@H](CC(N)=O)C(=O)N[C@@H](CC(=O)O)C(=O)O [NS3 357-371] | – | 273
CC(C)C[C@H](NC(=O)[C@H](CC(=O)O)NC(=O)[C@H](Cc1ccccc1)NC(=O)[C@@H](N)Cc1ccccc1)C(=O)N1CCC[C@H]1C(=O)N[C@@H](CC(C)C)C(=O)N1CCC[C@H]1C(=O)N[C@@H](Cc1c[nH]c2ccccc12)C(=O)N[C@H](C(=O)N[C@@H](CO)C(=O)NCC(=O)N[C@@H](C)C(=O)N[C@H](C(=O)N[C@H](C(=O)N[C@@H](CCC(=O)O)C(=O)O)[C@@H](C)O)[C@@H](C)O)[C@@H](C)O [Envelope 211-225] | – | 16200
CC[C@H](C)[C@H](NC(=O)[C@@H](NC(=O)[C@H](CCCNC(=N)N)NC(=O)[C@H](CC(=O)O)NC(=O)[C@H](C)NC(=O)[C@H](CCCCN)NC(=O)[C@H](Cc1ccccc1)NC(=O)[C@@H](N)CC(N)=O)C(C)C)C(=O)N[C@@H](CC(=O)O)C(=O)N1CCC[C@H]1C(=O)N[C@@H](CCCNC(=N)N)C(=O)N[C@@H](CCCNC(=N)N)C(=O)N[C@@H](CS)C(=O)N[C@@H](CC(C)C)C(=O)N[C@@H](CCCCN)C(=O)O [NS3 417-431] | 632 | –
CC[C@H](C)[C@H](NC(=O)[C@@H](NC(=O)[C@H](CC(C)C)NC(=O)[C@H](CC(N)=O)NC(=O)[C@H](CCCNC(=N)N)NC(=O)[C@H](CCCCN)NC(=O)[C@H](CCCCN)NC(=O)[C@H](Cc1ccccc1)NC(=O)[C@H](CCSC)NC(=O)[C@H](CCC(=O)O)NC(=O)[C@H](CCC(=O)O)NC(=O)[C@H](CCC(=O)O)NC(=O)[C@H](CC(C)C)NC(=O)[C@H](CCC(=O)O)NC(=O)[C@@H]1CCCN1)[C@@H](C)O)C(=O)O [NS3 177-191] | 10700 | –
CC[C@H](C)[C@H](NC(=O)[C@H](CS)NC(=O)[C@H](Cc1ccccc1)NC(=O)[C@H](CCC(N)=O)NC(=O)[C@H](CC(N)=O)NC(=O)[C@H](CC(N)=O)NC(=O)[C@H](CCCCN)NC(=O)[C@H](CC(C)C)NC(=O)[C@H](Cc1c[nH]c2ccccc12)NC(=O)[C@@H]1CCCN1C(=O)[C@H](CCC(=O)O)NC(=O)[C@@H](NC(=O)[C@H](CCSC)NC(=O)[C@H](CCCCN)NC(=O)[C@@H](N)CC(C)C)C(C)C)C(=O)N[C@@H](CCCCN)C(=O)N[C@H](C(=O)O)C(C)C [NS5 165-181] | – | 20
